No end group written: not given here.
Tested on: Fibroblasts (CCD-986SK)
Experiment: Measurement of collagen content in cell line (Procollagen type I peptide EIA kit)
Type: cell-based
Details: FIG. 4
Procedure: The culture supernatant was collected and the amount of collagen was measured as described below according to the guidelines of the Ministry of Food and Drug Safety, and the results thereof are shown in FIG. 4.
100 μl of an antibody-PoD conjugate solution was placed in each well, after which the culture solution and a standard solution were added in an amount of 20 μL thereto and cultured at 37° C. for 3 hr. The culture solution was removed from the well, followed by washing four times with 400 μL of a phosphate-buffered saline (PBS). 100 μL of a color development reagent (Procollagen type I peptide EIA kit, Takara Biomedical Co.) was added thereto, followed by culture at room temperature for 15 min, addition with 100 μL of 1 N sulfuric acid, and measurement at 450 nm using an ELISA reader.

| Compound | collagen synthesis and promotion effects (50 to 200 ppm) | other results |
| --- | --- | --- |
| KTTKS-TA: sulfhydryl KTTKS of Example 1-3-1-2; Chemical Formula 5 Lys-Thr-Thr-Lys-Ser-X with linker X thioglycolic acid (TA) (KTTKS-{thioglycolic acid}) | vastly superior compared to KTTKS |  |
| NCCCC[C@H](NC(=O)[C@H](Cc1c[nH]cn1)NC(=O)CNC(=O)CS)C(=O)O [GHK-TA] |  | collagen synthesis and promotion effects (concentration of 70 to 80 ppm, 24 hr): superior collagen synthesis and promotion effects |
| KTTKS [reference compound] | increased in proportion to the concentration |  |
| (EEMQRR)-TA: sulfhydryl-hexapeptide of Example 1-3-1-3; Chemical Formula 7 Glu-Glu-Met-Gln-Arg-Arg-X with linker X thioglycolic acid (TA) (EEMQRR-{thioglycolic acid}) |  | collagen synthesis and promotion effects (thioglycolic acid (TA) as the linker compared to cysteine (CS) as the linker): superior collagen synthesis and promotion effects |

Reference: patent publication US20210196899A1, “MICRONEEDLE COATED WITH DRUG AND MANUFACTURING METHOD FOR SAME” (SR BIOTEK INC., priority 2018, published 2021)
